Measurements as given in patent publication US20150133434A1, “Compositions and Methods for Reactivating Latent Immunodeficiency Virus” (priority 2012, published 2015).
Entries after “also recorded” stand apart in the source; their conditions may differ.

Assays:
[1] = system: latent DHIV-GFP, X4 virus in nonpolarized T helper cells; assay: Primary T-cell model of latency, ex vivo differentiated nonpolarized CD4+ T cells; format: cell-based, HIV-1; conditions: 96 h after compound addition; minor effect only at highest doses
[2] = system: latent LTR-GFP construct in J-Lat A72 cells; assay: J-Lat A72 cells (LTR-GFP lacking Tat), flow cytometry of GFP; format: cell-based, HIV-1
Description: (§1) HEK293T and Jurkat cells were obtained from the American Type Culture Collection. J-Lat (clones A2 and A72) cell lines were described. HEK293T cells were cultured in DMEM supplemented with 10% FBS, 1% L-glutamine and 1% penicillin-streptomycin (Life Technologies). Jurkat and J-Lat cells were cultured in RPMI supplemented with 10% FBS, 1% L-glutamine, and 1% penicillin-streptomycin. TNFα (Sigma-Aldrich) was used at concentrations of 0.25 or 1 ng/ml. Human αCD3 and αCD28 (BD Biosciences) were used at concentrations of 3 and 1 μg/ml, respectively. Prostratin (Sigma) was used at a suboptimal concentration of 0.5 μM, and SAHA (NCI Chemical Carcinogen Repository, Midwest Research Institute) was used at 2.5 μM.
(§2) To determine if BET inhibition specifically activates Tat-dependent transcription, a J-Lat cell line was utilized that harbored a latent lentiviral construct expressing Tat with GFP from the HIV LTR (clone A2; LTR-Tat-IRES-GFP). […] Stimulation with JQ1 yielded up to ninefold more GFP-expressing cells than control-treated cells, and a 22-fold increase was observed when cells were co-treated with JQ1 and low doses of TNFα (FIG. 21A). […] Here, an up to 22-fold increase in GFP^+ cells resulted from JQ1 treatment alone and a 45-fold increase when TNFα was added with JQ1 (FIG. 21B). Both cell lines were also treated with prostratin and SAHA (FIG. 27).
(§3) Two latent J-Lat cell lines A2 (containing a LTR-Tat-IRES-GFP construct) or A72 (containing a LTR-GFP construct) were treated with JQ1 or (R)-JQ1 in combination with TNFα or control at the indicated concentrations for 18 h, followed by flow cytometry analysis. […] Data represent average (±SD) of three independent experiments. All treatments in (A) and (B) on the X axis are in μM.

[3] = system: latent LTR-Tat-IRES-GFP construct in J-Lat A2 cells; assay: J-Lat A2 cells (LTR-Tat-IRES-GFP), flow cytometry of GFP; format: cell-based, HIV-1
Description: as §1, §2, §3

[4] = system: latent HIV-1 in Bcl-2-transduced resting CD4+ T cells; format: cell-based; conditions: 24-72 h, average of two donors
[5] = system: HIV LTR promoter driving destabilized GFP in Jurkat cells; assay: Single-cell time-lapse fluorescence microscopy of LTR-GFP Jurkat cells (two-state transcription model); format: cell-based
Description: Lentiviral vectors expressing the LTR-GFP cassette in the absence of Tat were used to infect 5×10^5 Jurkat cells at a multiplicity of infection <0.1, resulting in 25,000-50,000 infected cells each presumably with a unique integration site. Cells were then sorted by FACS to isolate green fluorescent protein-labeled (GFP^+) cells and fluorescently imaged on glass-bottom dishes in RPMI 1640 with 10% fetal calf serum and 1% penicillin-streptomycin and 1 μM JQ1 at t=0 h for the treated population. The imaging took place in humidified conditions at 37° C. and 5% CO2 for 12-24 hours with a 40× (1.2 NA) oil-immersion objective on a Zeiss Observer Z1 microscope equipped with an automated linear-encoded X-Y stage. Image processing and cell tracking were performed in Matlab™ with an in-house algorithm (Weinberger et al. Nature Genet 2008; 40:466-70) and a single 12-hour experiment could generate up to 1000 single-cell trajectories for analysis.
For each trajectory, noise autocorrelation (Φ(t)) and magnitude (CV2) were calculated using an established noise processing algorithm (Weinberger et al. Nature Genet 2008; 40:466-70; Austin D W et al., Nature 2006; 439:608-11) A published theory (Simpson M L, et al. J Theor Biol 2004; 229:383-94; Cox C D, et al. Proc Natl Acad Sci USA 2008; 105:10809-14) of the two-state transcriptional bursting model yields analytical expressions for the autocorrelation of the noise, Φ(τ), and noise magnitude. Derivations and calculated burst size and frequency have been reported (Singh A, et al. Biophysical Journal 2010; 98:L32-L4). Exogenous JQ1 addition can change either mean fluorescence, variability of expression (defined by the coefficient of variation, CV), or both. Modeling of 2-state transcription enables the differentiation between modulations in transcriptional initiation (Dkon) or in the burst size (DT/koff).
To biophysically characterize the Tat-independent JQ1 effect on the HIV LTR, single-cell time-lapse fluorescence microscopy was performed on ˜2,000 Jurkat cells where each cell carried a different integration site of the LTR promoter driving a destabilized GFP reporter (FIG. 24A). Mean fluorescence intensity (MFI) and the magnitude of intensity fluctuations (i.e. the ‘noise’) were quantified for sub-clusters of polyclonal cells in response to JQ1 treatment (FIG. 24). The data was analyzed using an established two-state model of episodic transcription in which the LTR switches between a transcriptional OFF state, where RNA polymerase II is stalled, and a transcriptional ON state where elongation occurs and multiple mRNA transcripts are produced at a rate=T (FIG. 24B). In this model, promoter switching occurs with rates kon and koff which generates pulses or bursts of transcription.
To determine how JQ1 influences these biophysical parameters (koff, kon, T), changes in LTR MFI and noise (measured by the coefficient of variation, CV, which is defined as the standard deviation over the mean) were examined and compared to the untreated LTR (FIG. 24C, D). By qualifying MFI and CV in time-lapse trajectories, changes in both burst frequency (kon) and burst size, or the # of mRNA produced per activity pulse, (T/koff) can be determined.

Cc1sc2c(c1C)C(c1ccc(Cl)cc1)=N[C@@H](CC(=O)OC(C)(C)C)c1nnc(C)n1-2 [JQ1, tert-Butyl 2-((6S)-4-(4-chlorophenyl)-2,3,9-trimethyl-6H-thieno[3,2-f][1,2,4]triazolo[4,3-a][1,4]diazepin-6-yl)acetate]
reversal of latency (GFP) [1]: minor activatory effect
activation of HIV transcription (GFP) ([2]; 18 h): increased GFP expression; also recorded: reactivated HIV-1 in a dose-dependent manner
effect of adding SAHA to JQ1 ([2]; FIG. 27): only a very modest increase
effect of adding prostratin to JQ1 ([2]; FIG. 27): enhanced the JQ1 effect
increase in GFP+ cells ([2]; JQ1 alone): up to 22 fold
increase in GFP+ cells ([2]; TNFα added with JQ1): 45 fold
activation of HIV transcription (GFP) ([3]; 18 h): activated HIV transcription in a dose-dependent manner; also recorded: reactivated HIV-1 in a dose-dependent manner; also recorded: increased GFP expression
effect of adding SAHA to JQ1 ([3]; FIG. 27): only a very modest increase
effect of adding prostratin to JQ1 ([3]; FIG. 27): enhanced the JQ1 effect
GFP-expressing cells relative to control-treated cells ([3]; JQ1 alone): up to ninefold
increase in GFP-expressing cells ([3]; JQ1 with low doses of TNFα): 22 fold
reactivation of latent HIV-1 relative to costimulation with αCD3 and αCD28 antibodies [4]: ~14%
delay in transcriptional initiation ([5]; 1 μM JQ1, average): ~50 min
increase of mRNAs per pulse of transcriptional activity ([5]; 1 μM JQ1, average): ~15 mRNAs per pulse
LTR noise (coefficient of variation) ([5]; 1 μM JQ1 vs untreated): increases
average dwell time in the OFF state (1/kon) ([5]; 1 μM JQ1 vs untreated): increases
mean fluorescence intensity (MFI) ([5]; 1 μM JQ1 vs untreated): without a significant shift
transcription burst size (T/koff) ([5]; 1 μM JQ1 vs untreated): enhancement; also recorded: increases
